Calls of active or inactive are those of the source. The rule behind the calls is not given here. Where a SMILES comes first, the peptide text is derived from it. The star is where a group is joined. Cbz = O=C(OCc1ccccc1)*
Key:
[1] = tested on: M. tuberculosis H37Rv growth inhibition, no glycerol; assay: M. tuberculosis growth inhibition, confirmation, H37Rv, purified and synthesized compounds (AID 493181); settings: for IC90: 90% growth inhibition concentration
[2] = as above; settings: M. tuberculosis H37Rv growth inhibition, no glycerol; at 100 µM (top of the series)

For `O=C(/C=C/c1ccccc1)N1CCN(CCN2C(=O)c3cccc4cccc(c34)C2=O)CC1`, the IC50 [1] was 3170 nM and the IC90 [1] was greater than 100000 nM.

In the case of `CCOC(=O)CNC(=O)[C@H](Cc1ccccc1)NC(=O)OCc1ccccc1` (Cbz-Phe-Gly-OEt), the IC50 [1] is reported as 1410 nM and the IC90 [1] is reported as 2110 nM.

`O=C(CSc1nc2ccccc2c(=O)[nH]1)NC1CCCCC1` gave an IC50 [1] of less than 200 nM and an IC90 [1] of less than 200 nM.

Molecule `Cc1ccc(NC(=O)C2C3/C=C\CCCCC32)cc1C` (centres undefined) has an IC50 [1] of 1480 nM and an IC90 [1] of 1680 nM.

With `Cc1ccc2ccc3ccc(C)nc3c2n1` the IC50 [1] was less than 200 nM and the IC90 [1] was 920 nM.

For `CCOC(=O)C(C)Sc1ncnc2c1nnn2-c1ccc(F)cc1` (centres undefined), the IC50 [1] was 1380 nM and the IC90 [1] was 3380 nM.

`COC(=O)C1CC(=O)N(c2ccc(OCc3ccccc3Cl)cc2)C1` (centres undefined) showed an IC50 [1] of 830 nM and an IC90 [1] of 8400 nM.

With `S=c1nc[nH]c2nc[nH]c12` the IC50 [1] was 1500 nM and the IC90 [1] was 1650 nM.

In the case of `CCC(C)Nc1ccc(NC(C)CC)cc1` (centres undefined), the IC50 [1] is reported as 1100 nM and the IC90 [1] is reported as 1500 nM.

For `Oc1ccccc1/C=N/Nc1ccnc(SCc2ccccc2)n1`, the inhibition [2] was 0.65% (inactive).

Molecule `Cc1nn2c(NCc3ccccn3)cc(C(C)C)nc2c1-c1ccccc1` has an IC50 [1] of 1480 nM and an IC90 [1] of 2670 nM.

`Cc1nc(SCC(=O)NC2CCCCC2)[nH]c(=O)c1C` gave an IC50 [1] of less than 200 nM and an IC90 [1] of 540 nM.

Work on `CCOC(=O)COc1ccc(/C=C2\NC(=S)N(CC)C2=O)cc1` yielded an IC50 [1] of 1930 nM and an IC90 [1] of 3450 nM.

Work on `CC(C)NC(=O)c1sc(=S)n2c1[nH]c(=O)c1ccc(C(=O)NCCc3ccc(Cl)cc3)cc12` yielded an IC50 [1] of less than 200 nM and an IC90 [1] of 1510 nM.

With `O=C(/C=C\c1cccs1)N1CCN(Cc2ccc3c(c2)OCO3)CC1` the IC50 [1] was less than 200 nM and the IC90 [1] was 2780 nM.

With `O=C(CSc1nc2ccccc2c(=O)[nH]1)NCc1ccc(Cl)cc1` the IC50 [1] was 390 nM and the IC90 [1] was 1820 nM.

For `c1ccc(/N=C2\N=C(Nc3ccccn3)c3ccccc32)nc1`, the IC50 [1] was less than 200 nM and the IC90 [1] was less than 200 nM.

For `O=C1C(Br)=Cc2cccc3cccc1c23`, the IC50 [1] was less than 200 nM and the IC90 [1] was less than 200 nM.

`COc1cc(NC(=O)C/C(C)=N/NC(=O)c2ccccn2)c(OC)cc1Cl` showed an IC50 [1] of 3690 nM and an IC90 [1] of 8340 nM.

For `COC(=O)c1cc(=O)n(-c2ccc(F)cc2)c(=Nc2ccc(F)cc2)s1`, the IC50 [1] was less than 200 nM and the IC90 [1] was 4510 nM.

In the case of `COC(=O)C(C)Oc1ccc(-c2nccc(-c3ccccn3)n2)cc1` (centres undefined), the IC50 [1] is reported as 1490 nM and the IC90 [1] is reported as 3310 nM.

`CCc1ccc(/C=C2/C(=O)N(C)C(=S)N2CC(=O)OC)s1` showed an IC50 [1] of 2950 nM and an IC90 [1] of 7160 nM.

Work on `CCOC(=O)COn1c2c(c3c4no[n+]([O-])c4ccc31)CCCC2` yielded an IC50 [1] of 2140 nM and an IC90 [1] of 3780 nM.

With `O=C(NCC(c1cccs1)N1CCOCC1)c1cc([N+](=O)[O-])cc([N+](=O)[O-])c1` (centres undefined) the IC50 [1] was less than 200 nM and the IC90 [1] was 780 nM.

`CC(=NCc1ccc2c(c1)OCO2)C1=C(O)c2ccccc2C1=O` gave an IC50 [1] of less than 200 nM and an IC90 [1] of 2600 nM.

`Cc1ccc2c(c1)c(C1=c3ccccc3=NC1=O)c(O)n2C` showed an IC50 [1] of 840 nM and an IC90 [1] of 1470 nM.

In the case of `COC(=O)CCc1nc2c(C#N)c(-c3ccc(Cl)cc3)ccn2n1`, the IC50 [1] is reported as 760 nM and the IC90 [1] is reported as 7910 nM.

Molecule `Cc1cccc(/C=C/C(=O)c2ccc([N+](=O)[O-])o2)c1` has an IC50 [1] of less than 200 nM and an IC90 [1] of less than 200 nM.

Work on `CCOC(=O)c1ccc(NC(=O)Cn2ncc(Cl)c(Cl)c2=O)cc1` yielded an IC50 [1] of less than 200 nM and an IC90 [1] of 1550 nM.

With `CNc1nc(SCc2ccccc2Cl)nc2c1CCCC2` the IC50 [1] was less than 200 nM and the IC90 [1] was 2320 nM.

From PubChem BioAssay AID493181 (Southern Research Specialized Biocontainment Screening …, 2011)
